Article PMC10299128, “The Parallel Structure–Activity Relationship Screening of Three Compounds Identifies the Common Agonist Pharmacophore of Pyrrolidine Bis-Cyclic Guanidine Melanocortin-3 Receptor (MC3R) Small-Molecule Ligands” (International Journal of Molecular Sciences, 2023)
Several values for one entry are separate records, joined by “and”; a condition that tells them apart may be missing. Equal values may be shown once.

Columns and labels:
mMC4R [1] = target: T1, mMC4R (Mus musculus, UniProt P56450); assay: cell-based
T1 sequence (P56450 whole entry): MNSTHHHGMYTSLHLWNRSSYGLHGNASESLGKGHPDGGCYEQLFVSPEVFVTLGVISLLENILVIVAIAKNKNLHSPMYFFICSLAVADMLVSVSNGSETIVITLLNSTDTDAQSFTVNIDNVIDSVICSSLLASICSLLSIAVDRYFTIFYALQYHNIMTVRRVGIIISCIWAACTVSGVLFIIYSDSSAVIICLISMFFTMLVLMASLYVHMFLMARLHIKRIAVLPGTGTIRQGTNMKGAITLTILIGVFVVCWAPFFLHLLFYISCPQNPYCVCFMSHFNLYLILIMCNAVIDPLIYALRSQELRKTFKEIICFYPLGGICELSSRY

mMC5R = mMC5R (Mus musculus, UniProt P41149); assay: AlphaScreen cAMP agonist assay, HEK293 cells stably expressing mMC5R; settings: for mMC5R partial agonist efficacy bin: sigmoidal curve, efficacy <90% of NDP-MSH
Sequence of mMC5R (P41149 whole entry): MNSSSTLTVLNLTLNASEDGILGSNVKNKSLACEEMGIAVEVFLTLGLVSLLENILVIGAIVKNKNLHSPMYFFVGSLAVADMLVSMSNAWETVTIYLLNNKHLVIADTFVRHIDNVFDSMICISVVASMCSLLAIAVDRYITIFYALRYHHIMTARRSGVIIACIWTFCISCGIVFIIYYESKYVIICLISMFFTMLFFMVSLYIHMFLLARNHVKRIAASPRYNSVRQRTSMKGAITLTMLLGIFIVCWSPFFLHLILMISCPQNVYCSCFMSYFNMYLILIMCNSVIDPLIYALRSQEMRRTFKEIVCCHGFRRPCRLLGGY

mMC4R [2] = target: T1, mMC4R; settings: antagonist, Schild analysis with agonist NDP-MSH; mean ± SEM
mMC3R = mMC3R (Mus musculus, UniProt P33033); assay: AlphaScreen cAMP agonist assay, HEK293 cells stably expressing mMC3R; settings: for mMC3R agonist efficacy (in words): relative to NDP-MSH, full = >90% receptor activation; for mMC3R percent maximal stimulatory response (compared to NDP-MSH): at 1 mM, not enough stimulation to determine EC50; for mMC3R partial agonist efficacy bin: sigmoidal curve, efficacy <90% of NDP-MSH
Sequence of mMC3R (P33033 whole entry): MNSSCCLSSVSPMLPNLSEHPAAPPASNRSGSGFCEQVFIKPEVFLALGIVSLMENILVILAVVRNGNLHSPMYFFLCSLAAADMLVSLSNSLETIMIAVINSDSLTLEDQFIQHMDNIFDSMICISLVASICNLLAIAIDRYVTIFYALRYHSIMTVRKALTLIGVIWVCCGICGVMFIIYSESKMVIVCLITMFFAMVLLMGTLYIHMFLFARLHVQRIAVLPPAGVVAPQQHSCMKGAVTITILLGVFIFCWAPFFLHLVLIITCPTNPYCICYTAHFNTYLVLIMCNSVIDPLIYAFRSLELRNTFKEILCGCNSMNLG

mMC1R = mMC1R (Mus musculus, UniProt Q01727); assay: AlphaScreen cAMP agonist assay, HEK293 cells stably expressing mMC1R; settings: for mMC1R partial agonist efficacy bin: sigmoidal curve, efficacy <90% of NDP-MSH; for mMC1R percent maximal stimulatory response (compared to NDP-MSH): at 1 mM, not enough stimulation to determine EC50
Sequence of mMC1R (Q01727 whole entry): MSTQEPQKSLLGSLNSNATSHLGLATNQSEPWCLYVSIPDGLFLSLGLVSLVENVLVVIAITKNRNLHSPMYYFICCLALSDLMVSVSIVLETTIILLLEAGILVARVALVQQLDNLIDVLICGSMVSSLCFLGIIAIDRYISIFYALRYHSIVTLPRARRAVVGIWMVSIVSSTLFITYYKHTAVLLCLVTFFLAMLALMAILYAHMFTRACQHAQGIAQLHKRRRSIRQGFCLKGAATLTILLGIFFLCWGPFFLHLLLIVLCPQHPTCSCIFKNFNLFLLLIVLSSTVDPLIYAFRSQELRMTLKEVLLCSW

mMC4R [3] = target: T1, mMC4R; assay: AlphaScreen cAMP agonist assay, HEK293 cells stably expressing mMC4R; settings: for mMC4R percent maximal stimulatory response (compared to NDP-MSH): at 1 mM, not enough stimulation to determine EC50; for mMC4R partial agonist efficacy bin: sigmoidal curve, efficacy <90% of NDP-MSH

SMILES	EC50 (mMC5R) [µM]	EC50 (mMC3R) [µM]	EC50 (mMC1R) [µM]	mMC4R percent maximal stimulatory response (compared to NDP-MSH) (mMC4R [3]) [% @ 1 mM]	mMC3R percent maximal stimulatory response (compared to NDP-MSH) (mMC3R) [% @ 1 mM]	mMC3R partial agonist efficacy bin (mMC3R)	also measured
CC(C)C[C@H]1CNC(=N)N1C[C@@H]1CCCN1C[C@@H](Cc1ccccc1)N1C[C@H]([C@@H](C)O)N(CC2CCC(C(C)(C)C)CC2)C1=N (stereo partly shown) [Compound 2718.037]	7 ± 1	–	0.9 ± 0.2	55	50	–	mMC5R partial agonist efficacy bin (mMC5R): B (B (51–90% receptor activation)); mMC1R partial agonist efficacy bin (mMC1R): B (B (51–90% receptor activation))
CC(C)C[C@H]1CNC(=N)N1C[C@@H]1CCCN1C[C@H](Cc1ccccc1)N1C[C@@H]([C@H](C)O)N(CC2CCC(C(C)(C)C)CC2)C1=N (stereo partly shown) [Compound 2718.039]	45	–	4 ± 2	55	50	–	mMC5R partial agonist efficacy bin (mMC5R): B (B (51–90% receptor activation)); mMC1R partial agonist efficacy bin (mMC1R): B (B (51–90% receptor activation))
CC(C)C[C@@H]1CNC(=N)N1C[C@H]1CCCN1C[C@H](Cc1ccccc1)N1C[C@H]([C@@H](C)O)N(CC2CCC(C(C)(C)C)CC2)C1=N (stereo partly shown) [Compound 2718.041]	8 ± 1	–	40	60	60	–	mMC5R partial agonist efficacy bin (mMC5R): B (B (51–90% receptor activation)); fold decreased mMC1R agonist potency (mMC1R; relative to 2718.001): 125 fold
CC(C)C[C@H]1CNC(=N)N1C[C@@H]1CCCN1C[C@H](Cc1ccccc1)N1C[C@H]([C@@H](C)O)N(CC2CCC(C(C)(C)C)CC2)C1=N (stereo partly shown) [Compound 2718.042]	21.3	–	2.9 ± 0.2	65	65	–	mMC5R partial agonist efficacy bin (mMC5R): B (B (51–90% receptor activation)); fold decreased mMC1R agonist potency (mMC1R; relative to 2718.001): 9 fold
CC(C)C[C@H]1CNC(=N)N1C[C@H]1CCCN1C[C@@H](Cc1ccccc1)N1C[C@H]([C@@H](C)O)N(CC2CCC(C(C)(C)C)CC2)C1=N (stereo partly shown) [Compound 2718.043]	8 ± 2	–	3.5 ± 0.2	55	55	–	mMC5R partial agonist efficacy bin (mMC5R): B (B (51–90% receptor activation)); mMC1R partial agonist efficacy bin (mMC1R): B (B (51–90% receptor activation))
CC(C)C[C@@H]1CNC(=N)N1C[C@@H]1CCCN1C[C@H](CC1CCCCC1)N1C[C@@H]([C@H](C)O)N(CC2CCC(C(C)(C)C)CC2)C1=N (stereo partly shown) [Compound 2718.046]	5 ± 1	9 ± 1	1.8 ± 0.2	55	–	B (B (51–90% receptor activation))	fold decreased mMC5R agonist potency (mMC5R; relative to 2718.002): 17 fold; fold decreased mMC1R agonist potency (mMC1R; relative to 2718.002): 7 fold
CCC[C@H]1CN([C@H](CC2CCCCC2)CN2CCC[C@H]2CN2C(=N)NC[C@H]2C(C)C)C(=N)N1CC1CCC(C(C)(C)C)CC1 (stereo partly shown) [Compound 2718.050]	4.2 ± 0.5	27	3.2 ± 0.5	–	–	B (B (51–90% receptor activation))	EC50 (mMC4R [3]): 39 µM; mMC4R partial agonist efficacy bin (mMC4R [3]): B (B (51–90% receptor activation)); fold decreased mMC1R agonist potency (mMC1R; relative to 2718.003): 5 fold
CCC[C@@H]1CN([C@@H](CC2CCCCC2)CN2CCC[C@H]2CN2C(=N)NC[C@H]2C(C)C)C(=N)N1CC1CCC(C(C)(C)C)CC1 (stereo partly shown) [Compound 2718.051]	11	–	6 ± 2	–	65	–	EC50 (mMC4R [3]): 50 µM; mMC4R partial agonist efficacy bin (mMC4R [3]): B (B (51–90% receptor activation)); fold decreased mMC5R agonist potency (mMC5R; relative to 2718.003): 9 fold; fold decreased mMC1R agonist potency (mMC1R; relative to 2718.003): 9 fold
CCC[C@H]1CN([C@@H](CC2CCCCC2)CN2CCC[C@@H]2CN2C(=N)NC[C@@H]2C(C)C)C(=N)N1CC1CCC(C(C)(C)C)CC1 (stereo partly shown) [Compound 2718.054]	3.5 ± 0.3	–	–	60	55	–	mMC1R percent maximal stimulatory response (compared to NDP-MSH) (mMC1R): 65% @ 1 mM
CC(C)CC1CNC(=N)N1CC1CCCN1CC(C)N1CC(C(C)O)N(CC2CCC(C(C)(C)C)CC2)C1=N (stereo not shown) [Compound 2718.061]	–	–	–	–	20	–	EC50 (mMC4R [3]): > 1000 µM; mMC5R percent maximal stimulatory response (compared to NDP-MSH) (mMC5R; at 1 mM, not enough stimulation to determine EC50): 65% @ 1 mM; mMC1R percent maximal stimulatory response (compared to NDP-MSH) (mMC1R): 65% @ 1 mM

Further lines, with some results ahead:

EC50 (mMC5R) [µM]	EC50 (mMC3R) [µM]	EC50 (mMC1R) [µM]	mMC4R percent maximal stimulatory response (compared to NDP-MSH) (mMC4R [3]) [% @ 1 mM]	mMC3R percent maximal stimulatory response (compared to NDP-MSH) (mMC3R) [% @ 1 mM]	mMC3R partial agonist efficacy bin (mMC3R)	SMILES	also measured
0.32 ± 0.01	0.38 ± 0.07	0.4 ± 0.04	–	–	–	CC(C)C[C@@H]1CNC(=N)N1C[C@@H]1CCCN1C[C@@H](Cc1ccccc1)N1CCN(CC2CCC(C(C)(C)C)CC2)C1=N (stereo partly shown) [Compound 2718.022]	Kb (mMC4R [1]): 0.794 µM; mMC4R pA2 (mMC4R [2]): 6.1; mMC3R agonist efficacy (in words) (mMC3R): full agonist efficacy
0.48 ± 0.05	3 ± 0.7	0.39 ± 0.05	50	–	–	C[C@H](O)[C@@H]1CN([C@H](Cc2ccccc2)CN2CCC[C@H]2CN2CCNC2=N)C(=N)N1CC1CCC(C(C)(C)C)CC1 (stereo partly shown) [Compound 2718.024]	Kb (mMC4R [1]): 0.501 µM; mMC4R pA2 (mMC4R [2]): 6.3; fold decreased mMC3R agonist potency (mMC3R; relative to 2718.001): 11 fold and 10 fold; mMC3R agonist efficacy (in words) (mMC3R): full agonist efficacy
0.6 ± 0.1	1 ± 0.3	0.51 ± 0.09	60	–	–	CC(C)C[C@@H]1CNC(=N)N1C[C@@H]1CCCN1C[C@@H](CC1CCCCC1)N1CCN(CC2CCC(C(C)(C)C)CC2)C1=N (stereo partly shown) [Compound 2718.025]	Kb (mMC4R [1]): 0.794 µM; mMC4R pA2 (mMC4R [2]): 6.1; fold decreased mMC3R agonist potency (mMC3R; relative to 2718.002): 4 fold; mMC3R agonist efficacy (in words) (mMC3R): full agonist efficacy
0.3 ± 0.01	2.6 ± 0.2	0.46 ± 0.03	–	–	–	C[C@H](O)[C@@H]1CN([C@H](CC2CCCCC2)CN2CCC[C@H]2CN2CCNC2=N)C(=N)N1CC1CCC(C(C)(C)C)CC1 (stereo partly shown) [Compound 2718.026]	EC50 (mMC4R [3]): 1.8 ± 0.5 µM; mMC4R partial agonist efficacy bin (mMC4R [3]): A (A (20–50% receptor activation)); Kb (mMC4R [1]): 0.631 µM; mMC4R pA2 (mMC4R [2]): 6.2; fold decreased mMC3R agonist potency (mMC3R; relative to 2718.002): 11 fold and 10 fold; mMC3R agonist efficacy (in words) (mMC3R): full agonist efficacy
0.51 ± 0.07	2.1 ± 0.2	0.34 ± 0.03	45	–	–	CC(C)[C@@H]1CNC(=N)N1C[C@@H]1CCCN1C[C@@H](CC1CCCCC1)N1CCN(CC2CCC(C(C)(C)C)CC2)C1=N (stereo partly shown) [Compound 2718.027]	Kb (mMC4R [1]): 0.631 µM; mMC3R agonist efficacy (in words) (mMC3R): full agonist efficacy
1.4 ± 0.3	5.9 ± 0.9	0.6 ± 0.1	–	–	B (B (51–90% receptor activation))	CC(C)C[C@@H]1CNC(=N)N1C[C@H]1CCCN1C[C@H](Cc1ccccc1)N1C[C@@H]([C@H](C)O)N(CC2CCC(C(C)(C)C)CC2)C1=N (stereo partly shown) [Compound 2718.038]	EC50 (mMC4R [3]): 1.6 ± 0.3 µM; mMC4R partial agonist efficacy bin (mMC4R [3]): B (B (51–90% receptor activation)); fold decreased mMC5R agonist potency (mMC5R; relative to 2718.001): 5 fold
0.5 ± 0.03	3.7 ± 0.4	0.9 ± 0.3	60	–	B (B (51–90% receptor activation))	CC(C)C[C@H]1CNC(=N)N1C[C@H]1CCCN1C[C@@H](Cc1ccccc1)N1C[C@@H]([C@H](C)O)N(CC2CCC(C(C)(C)C)CC2)C1=N (stereo partly shown) [Compound 2718.040]	–
2.9 ± 0.9	5.6 ± 0.8	7 ± 2	50	–	A (A (20–50% receptor activation))	CC(C)C[C@H]1CNC(=N)N1C[C@H]1CCCN1C[C@H](Cc1ccccc1)N1C[C@@H]([C@H](C)O)N(CC2CCC(C(C)(C)C)CC2)C1=N (stereo partly shown) [Compound 2718.044]	mMC5R partial agonist efficacy bin (mMC5R): B (B (51–90% receptor activation)); mMC1R partial agonist efficacy bin (mMC1R): B (B (51–90% receptor activation))
2.2 ± 0.7	3.5 ± 0.2	1 ± 0.1	50	–	B (B (51–90% receptor activation))	CC(C)C[C@@H]1CNC(=N)N1C[C@@H]1CCCN1C[C@@H](CC1CCCCC1)N1C[C@H]([C@@H](C)O)N(CC2CCC(C(C)(C)C)CC2)C1=N (stereo partly shown) [Compound 2718.045]	fold decreased mMC5R agonist potency (mMC5R; relative to 2718.002): 8 fold; fold decreased mMC1R agonist potency (mMC1R; relative to 2718.002): 4 fold
2.92 ± 0.07	2.6 ± 0.1	2.5 ± 0.3	–	–	B (B (51–90% receptor activation))	CCC[C@@H]1CN([C@H](CC2CCCCC2)CN2CCC[C@@H]2CN2C(=N)NC[C@H]2C(C)C)C(=N)N1CC1CCC(C(C)(C)C)CC1 (stereo partly shown) [Compound 2718.052]	EC50 (mMC4R [3]): 12 µM; mMC4R partial agonist efficacy bin (mMC4R [3]): B (B (51–90% receptor activation)); fold decreased mMC1R agonist potency (mMC1R; relative to 2718.003): 4 fold
2.4 ± 0.3	2.4 ± 0.2	1 ± 0.3	60	–	–	CCC[C@@H]1CN([C@H](CC2CCCCC2)CN2CCC[C@H]2CN2C(=N)NC[C@@H]2C(C)C)C(=N)N1CC1CCC(C(C)(C)C)CC1 (stereo partly shown) [Compound 2718.053]	Kb (mMC4R [1]): 1.26 µM; mMC3R agonist efficacy (in words) (mMC3R): full agonist efficacy
1.1 ± 0.3	2.2 ± 0.2	2.2 ± 0.7	45	–	B (B (51–90% receptor activation))	CCCCC(CN1CCCC1CN1C(=N)NCC1CC(C)C)N1CC(C(C)O)N(CC2CCC(C(C)(C)C)CC2)C1=N (stereo not shown) [Compound 2718.060]	fold decreased mMC5R agonist potency (mMC5R; relative to 2718.002): 4 fold; mMC1R partial agonist efficacy bin (mMC1R): B (B (51–90% receptor activation))
